This is an account of results in publication PMC6994673, “Metabolism of multiple glycosaminoglycans by Bacteroides thetaiotaomicron is orchestrated by a versatile core genetic locus” (Nature Communications, 2020).

The experiment addresses T1, BT3349-S1_27^4S-sulf (Bacteroides thetaiotaomicron, UniProt Q8A2F6).
T1 construct: gene BT_3349; pET28a, N- or C-terminal His6, E. coli; Talon and size exclusion; periplasmic, SpII signal peptide
T1 sequence (Q8A2F6 13-508): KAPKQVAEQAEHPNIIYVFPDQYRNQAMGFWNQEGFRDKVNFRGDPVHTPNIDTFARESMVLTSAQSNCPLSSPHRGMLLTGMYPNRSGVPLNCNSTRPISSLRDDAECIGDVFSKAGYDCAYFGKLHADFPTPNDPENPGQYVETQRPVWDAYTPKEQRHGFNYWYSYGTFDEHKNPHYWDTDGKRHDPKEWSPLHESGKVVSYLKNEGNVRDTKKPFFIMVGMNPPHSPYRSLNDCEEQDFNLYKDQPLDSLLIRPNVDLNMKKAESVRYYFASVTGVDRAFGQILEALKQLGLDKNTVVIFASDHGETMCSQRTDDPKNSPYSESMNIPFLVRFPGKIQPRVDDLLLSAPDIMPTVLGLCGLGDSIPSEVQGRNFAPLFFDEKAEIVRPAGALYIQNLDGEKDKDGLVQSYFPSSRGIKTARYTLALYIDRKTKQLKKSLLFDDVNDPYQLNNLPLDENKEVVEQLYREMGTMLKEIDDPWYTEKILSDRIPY
Kind of experiment: continuous linked assay with GH88, loss of absorbance at […] nm. It is filed as biochemical. Conditions: 50 mM MES pH 6.0 or Bis-Tris propane pH 6.5, 150 mM NaCl, 37 °C; kinetic parameters only in supplement, kind not told.

With `CC(=O)N[C@H]1C(O)O[C@H](CO)[C@H](OS(=O)(=O)O)[C@@H]1O[C@@H]1OC(C(=O)O)=C[C@H](O)[C@H]1O` (stereo partly shown) [Δ4,5UA-GalNAc4S], the kinetic parameters result was “monitored via a continuous linked assay using BT3334^GH88 and UA-GalNAc4S as the substrate”.
